Laboratory results reported in US11236053B2, “NADPH oxidase inhibitors and uses thereof” (Emory University, priority 2017, dated 2022).

Tests used:
[1] = test system: hippocampal brain slices; details: hippocampal brain slices treated with Nox 4 inhibitors; cited from earlier work
[2] = Superoxide scavenging assay (xanthine/xanthine oxidase, cytochrome C); type: biochemical; details: in vitro, concentrations up to 100 μM, superoxide from xanthine/xanthine oxidase
Protocol: (§1) ROS scavenging by sulfonylurea compound 23, 24, or 25 was assessed in vitro. Superoxide was generated with xanthine/xanthine oxidase and measured using the cytochrome C assay. In addition, 5 μM hydrogen peroxide was added exogenously and measured using the Amplex Red™ assay. ROS were measured in the presence of indicated concentrations of each compound or DMSO solvent. Bars represent means±SEM of 4 (superoxide) or 3 (hydrogen peroxide) independent experiments. Differences between DMSO and sulfonylurea compounds are not significant.
(§2) To assess ROS scavenging, the consumption of superoxide, generated by xanthine/xanthine oxidase, or of exogenous hydrogen peroxide, was measured by increasing concentrations of the compounds of interest.
An assay was developed based on the measurement of superoxide-dependent changes in cytochrome C absorbance at 550 nm. Briefly, superoxide was generated in vitro in phosphate buffered saline solution, using hypoxanthine (100 μM)/xanthine oxidase (6×10^3 U/mL) in the presence of catalase (200 U/mL) to eliminate H2O2. Compounds under study were added at various concentrations (1-100 μM) and remaining superoxide was measured with cytochrome C (46 μM). Superoxide dismutase (575 U/mL) was used as a positive control in separate samples measured at the same time. Following a 1 min stabilization period, absorbance was measured at 550 nm in a microplate reader (Biotek), using a kinetic program (1 read/min) for 15 min. The linear slope representing the rate of superoxide production was used to calculate the percentage of superoxide scavenging.

[3] = Hydrogen peroxide scavenging assay (Amplex Red); type: biochemical; details: in vitro, concentrations up to 100 μM, 5 μM exogenous hydrogen peroxide
Protocol: as §1, §2
Hydrogen peroxide was measured in vitro, using an Amplex Red™ assay kit (Invitrogen), according to the manufacturer's instructions. This assay measures the oxidation of Amplex Red™ (10-acetyl-3,7-dihydroxyphenoxazine) to fluorescent resorufin in the presence of horseradish peroxidase. Briefly, H2O2 ([…]) was added to various concentrations (1-100 μM) of the compounds under study in reaction buffer. After an incubation of 5 min, Amplex Red™ was added to measure remaining H2O2. Reactions were incubated for 30 min at room temperature, protected from light. Resorufin fluorescence was measured in a microplate reader (Biotek) using excitation at 530 nm and emission at 590 nm.

[4] = test system: Nox4-dependent signaling; test: TGF-β-induced α-SMA upregulation in human aortic smooth muscle cells (Western blot); type: cell-based; details: HASMCs pretreated 30 min, TGF-β 24 h, Western blot normalized to β-tubulin
Protocol: Human aortic smooth muscle cells in culture were incubated with indicated concentrations of compound 23, 24, or 25 and stimulated with 2 ng/ml TGF-β for 24 h to induce a Nox4-dependent upregulation of smooth muscle alpha-actin (α-SMA). Protein expression was measured by Western blotting and normalized to β-tubulin. In the absence of inhibitor, α-SMA induction by TGF-β was maximal (100%).
Cells were pretreated with a candidate inhibitor 30 min before exposure to TGF-β and harvested after 24 h. Actin expression was measured by western blotting with a specific antibody.

[5] = test system: Nox4 mRNA; test: Nox4 mRNA qPCR assay in TGF-β-stimulated cells; type: cell-based, human; details: preincubation, same range of concentrations as FIG. 11, TGF-β stimulated
[6] = test system: human aortic smooth muscle cells; test: Mammalian cell live/dead viability assay; type: cell-based; details: TGF-β stimulated, n=6
Protocol: To rule out a possible toxic effect of these compounds in cultured cells, cell viability was measured using a commercial mammalian cell live/dead assay. Stimulation with TGF-β alone had no effect on cell viability (99±0.61%, P=NS, n=4).

SMILES	cell death [1]	effect on superoxide (ROS scavenging) [2]	effect on hydrogen peroxide (ROS scavenging) [3]	inhibition of Nox4-dependent signaling (α-SMA expression) [4]	effect on Nox4 expression (Nox4 mRNA) [5]	cell viability ([6]; 100 μM preincubation) [%]	cell viability ([6]; 10 μM preincubation) [%]
Cc1c2c(=O)n(-c3ccccc3Cl)[nH]c2cc(=O)n1Cc1ccccn1 [GKT136901]	significantly reduced						
O=C1N(c2ccc(C(F)(F)F)cc2)CCCN1S(=O)(=O)c1ccc(F)cc1 [Compound 24, 1-((4-Fluorophenyl)sulfonyl)-3-(4-(trifluoromethyl)phenyl)-tetrahydropyrimidin-2(1H)-one]		no effect	no effect	profoundly inhibiting	did not affect	100±0.97	
COc1ccc(S(=O)(=O)N2CCN(c3ccc(C(F)(F)F)cc3)C2=O)cc1 [Compound 25, 1-((4-Methoxyphenyl)sulfonyl)-3-(4-(trifluoromethyl)phenyl)-imidazolidin-2-one]		no effect	no effect	profoundly inhibiting	did not affect		97±2.50
COc1ccc(S(=O)(=O)N2CCCN(c3ccc(C(F)(F)F)cc3)C2=O)cc1 [Compound 23, 1-((4-Methoxyphenyl)sulfonyl)-3-(4-(trifluoromethyl)phenyl)-tetrahydropyrimidin-2(1H)-one]		no effect	no effect	profoundly inhibiting	did not affect	92±3.09	
